# According to article PMC5942357 (European Journal of Clinical Pharmacology, 2018):
# How the values were obtained:
# [1] = test system: αvβ6 integrin; settings: cited from earlier work
# [2] = Pulmonary function tests (DLCO, FEV1, FVC), change from baseline; type: in vivo, human
# Procedure: Participants were under continuous medical supervision during each admission period (up to 48 h post-dose), and safety assessments were made at regular intervals throughout each period and until the end of follow-up. Assessment of safety was conducted by monitoring AEs, clinical laboratory tests (haematology, clinical chemistry and urinalysis), vital signs (including pulse oximetry), 12-lead ECGs, telemetry, physical examinations and pulmonary function tests (forced expiratory volume in 1 s [FEV1], FVC, diffusing capacity of the lung for carbon monoxide).
# [3] = test system: αvβ6 integrin-mediated TGFβ activation; settings: in vitro experiments; cited from earlier work
# [4] = IPF patients treated; cited from earlier work
smiles,measurement,setting,value
Cc1cc(C)n(-c2cccc([C@H](CC(=O)O)CN3CC[C@@H](CCc4ccc5c(n4)NCCC5)C3)c2)n1 [GSK3008348],Binding affinity for the αvβ6 integrin,[1],high affinity
same,"DLCO, mean change from baseline to 24 h post dose","[2]; 1 mcg, N=6",-0.153 L
same,"FEV1, mean change from baseline to 24 h post dose","[2]; 1 mcg, N=6",-0.043 L
same,"FVC, mean change from baseline to 24 h post dose","[2]; 1 mcg, N=6",-0.06 L
same,"DLCO, mean change from baseline to 24 h post dose","[2]; 3 mcg, N=6",0.938 L
same,"FEV1, mean change from baseline to 24 h post dose","[2]; 3 mcg, N=6",-0.007 L
same,"FVC, mean change from baseline to 24 h post dose","[2]; 3 mcg, N=6",0.125 L
same,"DLCO, mean change from baseline to 24 h post dose","[2]; 10 mcg, N=6",0.113 L
same,"FEV1, mean change from baseline to 24 h post dose","[2]; 10 mcg, N=6",-0.053 L
same,"FVC, mean change from baseline to 24 h post dose","[2]; 10 mcg, N=6",-0.105 L
same,"DLCO, mean change from baseline to 24 h post dose","[2]; 30 mcg, N=6",-0.168 L
same,"FEV1, mean change from baseline to 24 h post dose","[2]; 30 mcg, N=6",0.085 L
same,"FVC, mean change from baseline to 24 h post dose","[2]; 30 mcg, N=6",0.033 L
same,"DLCO, mean change from baseline to 24 h post dose","[2]; 100 mcg, N=6",-0.862 L
same,"FEV1, mean change from baseline to 24 h post dose","[2]; 100 mcg, N=6",0.023 L
same,"FVC, mean change from baseline to 24 h post dose","[2]; 100 mcg, N=6",0.12 L
same,"DLCO, mean change from baseline to 24 h post dose","[2]; 300 mcg, N=6",0.562 L
same,"FEV1, mean change from baseline to 24 h post dose","[2]; 300 mcg, N=6",-0.072 L
same,"FVC, mean change from baseline to 24 h post dose","[2]; 300 mcg, N=6",-0.078 L
same,"DLCO, mean change from baseline to 24 h post dose","[2]; 1000 mcg, N=12",-0.293 L
same,"FEV1, mean change from baseline to 24 h post dose","[2]; 1000 mcg, N=12",-0.027 L
same,"FVC, mean change from baseline to 24 h post dose","[2]; 1000 mcg, N=12",-0.014 L
same,"DLCO, mean change from baseline to 24 h post dose","[2]; 3000 mcg, N=11",0.547 L
same,"FEV1, mean change from baseline to 24 h post dose","[2]; 3000 mcg, N=11",-0.025 L
same,"FVC, mean change from baseline to 24 h post dose","[2]; 3000 mcg, N=11",-0.094 L
same,Individual change from baseline in FEV1 and FVC over time between treatment groups,[2]; all dose levels,did not show clinically significant differences
COC(=O)c1ccc2c(c1)NC(=O)/C2=C(\Nc1ccc(N(C)C(=O)CN2CCN(C)CC2)cc1)c1ccccc1 [nintedanib],Effects on αvβ6 integrin-mediated TGFβ activation,[3],limited effects
same,"Discontinuation due to adverse events (AEs), patients",[4],~20%
Cc1ccc(=O)n(-c2ccccc2)c1 [pirfenidone],Effects on αvβ6 integrin-mediated TGFβ activation,[3],limited effects
same,"Discontinuation due to adverse events (AEs), patients",[4],approximately 30%
